In one assay the target is T1, AAC(6′)-APH(2^″) (Staphylococcus aureus, UniProt P0A0C1).
T1 construct: gene aacA-aphD; codon-optimized synthetic gene in pET15b, His-tagged, expressed in E. coli BL21(DE3), Ni-NTA purified; bifunctional enzyme
The assay is described as follows: UPLC-qTOF-HR-MS of […]'-N-acylation product, structure confirmed by NMR. The assay is classed as biochemical. Conditions: acyl donor; one-pot with GenN, amikacin 2 mM, SAM 2 mM, 50 mM Tris-HCl pH 7.5, 30 °C, 12 h, enzyme 500 μM.

The next assay has as its target T2, GenN (Micromonospora echinospora, UniProt Q2MG72).
T2 construct: codon-optimized synthetic gene in pJExpress404, His-tagged, expressed in E. coli BL21(DE3), Ni-NTA purified
T2 sequence (Q2MG72 1-321): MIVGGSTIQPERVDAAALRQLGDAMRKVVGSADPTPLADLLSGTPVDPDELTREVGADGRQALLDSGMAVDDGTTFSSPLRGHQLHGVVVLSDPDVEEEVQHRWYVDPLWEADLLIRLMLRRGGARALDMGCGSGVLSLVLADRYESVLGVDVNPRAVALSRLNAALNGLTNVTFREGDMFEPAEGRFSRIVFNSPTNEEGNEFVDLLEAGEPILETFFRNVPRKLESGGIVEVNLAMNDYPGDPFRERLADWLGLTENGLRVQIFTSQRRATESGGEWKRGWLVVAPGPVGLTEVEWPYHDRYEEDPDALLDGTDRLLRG
The assay is described as follows: UPLC-qTOF-HR-MS of methylation product, structure confirmed by NMR. The assay is classed as biochemical. Conditions: SAM 2 mM, amikacin 2 mM, 50 mM Tris-HCl pH 7.5, 30 °C, 12 h, enzyme 500 μM.

T1 sequence (P0A0C1 whole entry): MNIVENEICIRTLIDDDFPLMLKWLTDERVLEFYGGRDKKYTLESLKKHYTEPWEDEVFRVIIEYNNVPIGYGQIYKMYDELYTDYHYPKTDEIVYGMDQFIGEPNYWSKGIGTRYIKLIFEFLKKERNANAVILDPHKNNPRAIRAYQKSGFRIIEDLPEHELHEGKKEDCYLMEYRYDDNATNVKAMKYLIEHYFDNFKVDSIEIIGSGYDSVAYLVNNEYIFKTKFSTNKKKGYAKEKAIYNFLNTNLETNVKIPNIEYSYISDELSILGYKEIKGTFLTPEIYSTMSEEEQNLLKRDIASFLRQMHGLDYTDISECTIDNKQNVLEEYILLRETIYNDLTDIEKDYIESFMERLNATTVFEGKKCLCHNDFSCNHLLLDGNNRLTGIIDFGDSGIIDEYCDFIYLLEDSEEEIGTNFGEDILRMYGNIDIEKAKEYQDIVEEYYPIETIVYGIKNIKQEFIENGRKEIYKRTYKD

Take `CCC(=O)SCCNC(=O)CCNC(=O)[C@H](O)C(C)(C)COP(=O)(O)OP(=O)(O)OC[C@H]1O[C@@H](n2cnc3c(N)ncnc32)[C@H](O)[C@@H]1OP(=O)(O)O` [propionyl-CoA]: on AAC(6′)-APH(2^″), the conversion yield entry was “Incubation with acetyl-CoA and propionyl-CoA as cosubstrates led to the formation of new UPLC peaks”.

As to `NCC[C@H](O)C(=O)N[C@@H]1C[C@H](N)[C@@H](O[C@H]2O[C@H](CN)[C@@H](O)[C@H](O)[C@H]2O)[C@H](O)[C@H]1O[C@H]1O[C@H](CO)[C@@H](O)[C@H](N)[C@H]1O` [amikacin], at GenN, the conversion yield result is listed as “Amikacin was an excellent substrate for SAM-dependent methylation by GenN”.

Take `CC(=O)SCCNC(=O)CCNC(=O)[C@H](O)C(C)(C)COP(=O)(O)OP(=O)(O)OC[C@H]1O[C@@H](n2cnc3c(N)ncnc32)[C@H](O)[C@@H]1OP(=O)(O)O` [acetyl-CoA]: on AAC(6′)-APH(2^″), the conversion yield result is “Incubation with acetyl-CoA and propionyl-CoA as cosubstrates led to the formation of new UPLC peaks”.

(Values after PMC8430323, “Microbial Enzymatic Synthesis of Amikacin Analogs With Antibacterial Activity Against Multidrug-Resistant Pathogens” (Frontiers in Microbiology, 2021).)
